Test results from patent US20130302282A1, “Inhibitors of Hepatitis C Virus” (priority 2010, published 2013).
Read-outs that look alike come from different tables or passages of the source.

What was measured:
[1] = tested on: 1b_Huh-Luc/Neo-ET cell line (bicistronic genotype 1b replicon in Huh 7 cells); assay: HCV 1b replicon assay, luciferase readout; type: cell-based, HCV genotype 1b; conditions: Hepatitis C virus
Method in brief: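 Huh 7 cells persistently carrying a bicistronic genotype 1b luciferase replicon, treated with compound in triplicate the day after plating and incubated 72 h. Luciferase activity measured by Bright-Glo and expressed as percent of untreated control; EC50 from four-parameter fit, repeated several times.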

HCV NS5B S365A mutant = target: T1, HCV NS5B S365A mutant (Hepatitis C virus genotype 1b, UniProt Q9WMX2, S2784A); assay: Activity against HCV NS5B S365A mutant; type: cell-based; conditions: for Inhibition of HCV NS5B S3865A mutant: class symbol
T1 construct: HCV NS5B C316Y or S365A mutant as indicated; expressed in transfected cells
T1 sequence (Q9WMX2 2420-3010 S2784A): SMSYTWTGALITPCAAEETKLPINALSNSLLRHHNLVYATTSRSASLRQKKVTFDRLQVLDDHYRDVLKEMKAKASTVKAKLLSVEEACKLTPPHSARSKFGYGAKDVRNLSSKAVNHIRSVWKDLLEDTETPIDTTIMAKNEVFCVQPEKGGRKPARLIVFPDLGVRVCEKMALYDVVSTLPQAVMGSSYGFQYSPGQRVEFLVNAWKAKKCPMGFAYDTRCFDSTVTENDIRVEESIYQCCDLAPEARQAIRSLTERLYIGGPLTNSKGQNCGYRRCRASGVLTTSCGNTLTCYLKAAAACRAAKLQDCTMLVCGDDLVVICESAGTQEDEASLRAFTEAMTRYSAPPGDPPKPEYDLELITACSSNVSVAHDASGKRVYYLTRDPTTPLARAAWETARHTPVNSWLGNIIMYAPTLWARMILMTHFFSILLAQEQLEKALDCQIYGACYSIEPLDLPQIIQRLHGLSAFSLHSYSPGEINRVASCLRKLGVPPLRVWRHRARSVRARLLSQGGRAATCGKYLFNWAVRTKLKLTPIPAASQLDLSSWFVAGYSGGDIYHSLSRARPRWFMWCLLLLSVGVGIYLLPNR
Protocol: (§1) The biological activity against HCV 1b, 1a, or 2a is indicated as being *, **, ***, or ****, which corresponds to EC50 ranges of EC50>1000 nM, 100 nM<EC50≦1000 nM, 10 nM<EC50≦100 nM, or EC50≦10 nM, respectively. The biological activity against HCV NS5B C316Y or S365A mutant is indicated as being […], which corresponds to EC50 ranges of EC50>1000 nM, 200 nM<EC50≦1000 nM, […], respectively.

HCV NS5B C316Y mutant = target: T2, HCV NS5B C316Y mutant (Hepatitis C virus genotype 1b, UniProt Q9WMX2, C2735Y); assay: Activity against HCV NS5B C316Y mutant; type: cell-based; conditions: for Inhibition of HCV N55B C316Y mutant: class symbol
T2 construct: HCV NS5B C316Y or S365A mutant as indicated; expressed in transfected cells
T2 sequence (Q9WMX2 2420-3010 C2735Y): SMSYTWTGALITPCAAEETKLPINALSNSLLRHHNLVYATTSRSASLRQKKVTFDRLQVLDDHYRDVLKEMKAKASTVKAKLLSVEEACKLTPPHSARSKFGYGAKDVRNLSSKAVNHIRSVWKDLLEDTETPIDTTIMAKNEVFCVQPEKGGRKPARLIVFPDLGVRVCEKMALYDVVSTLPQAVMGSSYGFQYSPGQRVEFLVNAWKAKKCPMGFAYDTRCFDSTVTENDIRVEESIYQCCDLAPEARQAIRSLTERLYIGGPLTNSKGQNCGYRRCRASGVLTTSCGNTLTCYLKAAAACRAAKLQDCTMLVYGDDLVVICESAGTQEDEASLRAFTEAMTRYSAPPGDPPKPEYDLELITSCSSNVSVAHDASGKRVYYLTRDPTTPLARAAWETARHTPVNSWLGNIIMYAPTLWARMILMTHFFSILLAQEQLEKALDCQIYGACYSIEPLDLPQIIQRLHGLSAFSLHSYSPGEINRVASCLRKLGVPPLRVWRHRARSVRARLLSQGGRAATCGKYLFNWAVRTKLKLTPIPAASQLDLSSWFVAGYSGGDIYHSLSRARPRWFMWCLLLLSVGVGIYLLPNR
Protocol: as §1

HCV 2a = HCV 2a replicon assay; type: cell-based; conditions: Hepatitis C virus; class symbol; cell marked (HCV genotype 2a replicon); read-out: Inhibition of HCV genotype 2a replicon
Protocol: Compounds of the invention can inhibit multiple genotypes of HCV selected but not limited to 1a, 1h, 2a, 3a, and 4a. The EC50s are measured in the corresponding replicon assays that are similar to HCV 1b replicon assay as described above.
as §1

[2] = Huh-7, 1b_Huh-Luc/Neo-ET cell line, read-out: EC50, half-maximal inhibition of HCV 1b replication
[3] = Huh-7, numeric value, HCV genotype 1b replicon, read-out: Inhibition of HCV genotype 1b replicon (EC50)
[4] = Huh-7, class symbol, HCV genotype 1b replicon, read-out: Inhibition of HCV genotype 1b replicon

| SMILES | EC50 [1, 2] | EC50 [1, 3] | Inhibition of HCV NS5B S3865A mutant (HCV NS5B S365A mutant) | Inhibition of HCV N55B C316Y mutant (HCV NS5B C316Y mutant) | EC50 [1, 4] | EC50 (HCV NS5B S365A mutant) | EC50 (HCV NS5B C316Y mutant) | EC50 (HCV 2a) |
| --- | --- | --- | --- | --- | --- | --- | --- | --- |
| CNC(=O)c1c(-c2ccc(Oc3ccc(F)cc3)cc2)oc2cc3c(cc12)[C@H](C)CCCN3S(C)(=O)=O (single isomer, unassigned) [Compound B85] | ≤ 10 nM | 3 nM | ††† | ††† | – | – | – | – |
| CNC(=O)c1c(-c2ccc(F)cc2)oc2cc3c(cc12)[C@@H]1C[C@@H]1CCN3S(C)(=O)=O (single isomer, unassigned) [Compound B132] | ≤ 10 nM | – | ††† | ††† | < 10 nM | – | – | – |
| CNC(=O)c1c(-c2ccc(Oc3ccc(F)cc3)cc2)oc2cc3c(cc12)[C@H](C)n1nncc1CN3S(C)(=O)=O (single isomer, unassigned) [Compound B163] | ≤ 10 nM | – | ††† | ††† | < 10 nM | – | – | – |
| CNC(=O)c1c(-c2ccc(F)cc2)oc2cc3c(cc12)[C@H](C)n1nncc1CN3S(C)(=O)=O (single isomer, unassigned) [Compound B169] | ≤ 10 nM | – | ††† | ††† | < 10 nM | – | – | – |
| CNC(=O)c1c(-c2ccc(Oc3ccc(F)cc3)cc2)oc2cc3c(cc12)[C@H](C)OC(C)(C)CN3S(C)(=O)=O (single isomer, unassigned) [Compound B176] | 10 to 100 nM | 13.6 nM | – | – | – | 200 to 1000 nM | 200 to 1000 nM | – |
| CNC(=O)c1c(-c2ccc(F)cc2)oc2cc3c(cc12)[C@H](C)N(C)C(=O)CN3S(C)(=O)=O (single isomer, unassigned) [Compound B179] | 10 to 100 nM | – | – | ††† | 10 to 100 nM | 200 to 1000 nM | – | – |
| CNC(=O)c1c(-c2ccc(F)cc2)oc2cc3c(cc12)[C@H](C)OC(C)(C)CN3S(C)(=O)=O (single isomer, unassigned) [Compound B184] | 10 to 100 nM | 16.5 nM | – | – | – | 200 to 1000 nM | > 1000 nM | – |
| CNC(=O)c1c(-c2ccc(Oc3ccc(F)cc3)cc2)oc2cc3c(cc12)[C@H](C)OC1(CC1)CN3S(C)(=O)=O (single isomer, unassigned) [Compound B187] | ≤ 10 nM | – | – | – | < 10 nM | > 1000 nM | > 1000 nM | – |
| CNC(=O)c1c(-c2ccc(F)cc2)oc2cc3c(cc12)[C@H](C)OC1(CC1)CN3S(C)(=O)=O (single isomer, unassigned) [Compound B193] | 10 to 100 nM | – | – | – | 10 to 100 nM | 200 to 1000 nM | 200 to 1000 nM | – |
| CNC(=O)c1c(-c2ccc(F)cc2)oc2cc3c(cc12)[C@H](C)NC(=O)CN3S(C)(=O)=O (single isomer, unassigned) [Compound B208] | ≤ 10 nM | – | ††† | ††† | < 10 nM | – | – | – |
| CNC(=O)c1c(-c2ccc(F)cc2)oc2cc3c(cc12)CCCN3S(C)(=O)=O [Compound B1] | – | – | ††† (EC50 ≦ 200 nM) | ††† (EC50 ≦ 200 nM) | 100 to 1000 nM | – | – | – |
| C=CC1CCCN(S(C)(=O)=O)c2cc3oc(-c4ccc(F)cc4)c(C(=O)NC)c3cc21 (centres unmarked) [Compound B60] | 10 to 100 nM | – | – | – | – | – | – | 10 to 100 nM |
| CCC1CCCN(S(C)(=O)=O)c2cc3oc(-c4ccc(F)cc4)c(C(=O)NC)c3cc21 (centres unmarked) [Compound B63] | 10 to 100 nM | – | – | – | – | – | – | 10 to 100 nM |
| CS(=O)(=O)N1CCCCc2cc3c(-c4ncc[nH]4)c(-c4ccc(F)cc4)oc3cc21 [Compound B67] | ≤ 10 nM | 5.2 nM | – | ††† | – | 200 to 1000 nM | – | – |
| CNC(=O)c1c(-c2ccc(F)cc2)oc2cc3c(cc12)C(OC)CCCN3S(C)(=O)=O (centres unmarked) [Compound B71] | 10 to 100 nM | – | – | – | – | – | – | 10 to 100 nM |
| CNC(=O)c1c(-c2ccc(F)cc2)nn2cc3c(cc12)C(O)CCCN3S(C)(=O)=O (centres unmarked) [Compound B73] | – | – | – | – | – | – | – | > 1000 nM |
| CNC(=O)c1c(-c2ccc(F)cc2)nn2cc3c(cc12)C=CCCN3S(C)(=O)=O [Compound B74] | – | – | – | – | – | – | – | > 1000 nM |

| SMILES | EC50 [1, 2] | EC50 [1, 3] | Inhibition of HCV NS5B S3865A mutant (HCV NS5B S365A mutant) | Inhibition of HCV N55B C316Y mutant (HCV NS5B C316Y mutant) | EC50 [1, 4] | EC50 (HCV NS5B S365A mutant) | EC50 (HCV NS5B C316Y mutant) | EC50 (HCV 2a) |
| --- | --- | --- | --- | --- | --- | --- | --- | --- |
| CNC(=O)c1c(-c2ccc(Oc3ccc(F)cc3)cc2)nn2cc3c(cc12)C(C)CCCN3S(C)(=O)=O (centres unmarked) [Compound B76] | – | – | – | – | – | – | – | 100 to 1000 nM |
| CNC(=O)c1c(-c2ccc(F)cc2)oc2cc3c(cc12)C(=O)C(C)CCN3S(C)(=O)=O (centres unmarked) [Compound B77] | – | – | – | – | – | – | – | 100 to 1000 nM |
| CNC(=O)c1c(-c2ccc(F)cc2)oc2cc3c(cc12)C(O)C(C)CCN3S(C)(=O)=O (centres unmarked) [Compound B78] | – | – | – | – | – | – | – | 100 to 1000 nM |
| CNC(=O)c1c(-c2ccc(F)cc2)oc2cc3c(cc12)C=C(C)CCN3S(C)(=O)=O [Compound B79] | – | – | – | – | – | – | – | > 1000 nM |
| CNC(=O)c1c(-c2ccc(Oc3cccc(Cl)c3)cc2)nn2cc3c(cc12)C(C)CCCN3S(C)(=O)=O (centres unmarked) [Compound B98] | – | – | – | – | – | – | – | 100 to 1000 nM |
| CNC(=O)c1c(-c2ccc(Oc3ccc(Cl)cc3)cc2)nn2cc3c(cc12)C(C)CCCN3S(C)(=O)=O (centres unmarked) [Compound B99] | – | – | – | – | – | – | – | 100 to 1000 nM |
| CNC(=O)c1c(-c2ccc(F)cc2)oc2cc3c(cc12)C(=O)C(C)(C)CCN3S(C)(=O)=O [Compound B100] | 10 to 100 nM | – | – | – | – | – | – | 10 to 100 nM |
| C=C1c2cc3c(C(=O)NC)c(-c4ccc(F)cc4)oc3cc2N(S(C)(=O)=O)CCC1(C)C [Compound B101] | 10 to 100 nM | – | – | – | – | – | – | 10 to 100 nM |
| CNC(=O)c1c(-c2ccc(Oc3ccc(F)cc3)cc2)oc2cc3c(cc12)[C@H](C)OCCN3S(C)(=O)=O [Compound B118] | ≤ 10 nM | 3.1 nM | ††† | ††† | – | – | – | – |
| CNC(=O)c1c(-c2ccc(F)cc2)oc2cc3c(cc12)C(C)N(CCO)CCN3S(C)(=O)=O (centres unmarked) [Compound B145] | ≤ 10 nM | – | – | ††† | < 10 nM | 200 to 1000 nM | – | – |
| CNC(=O)c1c(-c2ccc(F)cc2)oc2cc3c(cc12)C(C)N(CCS(C)(=O)=O)CCN3S(C)(=O)=O (centres unmarked) [Compound B156] | 10 to 100 nM | – | ††† | ††† | 10 to 100 nM | – | – | – |
| CC1c2cc3c(-c4ncc[nH]4)c(-c4ccc(F)cc4)oc3cc2N(S(C)(=O)=O)CCN1C (centres unmarked) [Compound B171] | ≤ 10 nM | – | – | ††† | < 10 nM | 200 to 1000 nM | – | – |
| CC1OCCN(S(C)(=O)=O)c2cc3oc(-c4ccc(F)cc4)c(-c4ncc[nH]4)c3cc21 (centres unmarked) [Compound B197] | ≤ 10 nM | – | – | ††† | < 10 nM | 200 to 1000 nM | – | – |
| CNC(=O)c1c(-c2ccc(Oc3ccc(F)cc3)cc2)oc2cc3c(cc12)[C@H](C)O[C@H](CS(C)(=O)=O)CN3S(C)(=O)=O [Compound B207] | – | – | ††† | ††† | < 10 nM | – | – | – |
| CNC(=O)c1c(-c2ccc(F)cc2)oc2cc3c(cc12)[C@H](C)O[C@H](CO)CN3S(C)(=O)=O [Compound B212] | ≤ 10 nM | – | ††† | ††† | < 10 nM | – | – | – |
| CNC(=O)c1c(-c2ccc(F)cc2)oc2cc3c(cc12)[C@H](C)O[C@H](CS(C)(=O)=O)CN3S(C)(=O)=O [Compound B214] | – | – | ††† | ††† | < 10 nM | – | – | – |
